Reference: US20260297070A1, “CYCLIC [COMPOUND LEFT OUT] WRN INHIBITORS” (Nimbus Wadjet, Inc., priority 2023, published 2026)

These compounds were tested against T1, human Werner helicase (WRN-BV08, Uniprot Q14191, amino acids 517-1235 with L1074F point mutation) (Homo sapiens, UniProt Q14191, L1074F) (assay: WRN (BV08) ADP-Glo Assay). Details: 0.15 nM WRN, 5 μM ATP, 0.1 nM DNA duplex, 15 min preincubation, 60 min at 25° C., pH 7.5, 1% DMSO; read-out: ADP-Glo_hWRN_IC50.
T1 construct: Uniprot Q14191, amino acids 517-1235 with L1074F point mutation; TEV-cleavable 8×His (C, cleaved yes); made in house; host or cells: Sf9 insect cells (baculovirus)
T1 sequence (Q14191 with tags, fused parts or gaps L1074F limits assumed): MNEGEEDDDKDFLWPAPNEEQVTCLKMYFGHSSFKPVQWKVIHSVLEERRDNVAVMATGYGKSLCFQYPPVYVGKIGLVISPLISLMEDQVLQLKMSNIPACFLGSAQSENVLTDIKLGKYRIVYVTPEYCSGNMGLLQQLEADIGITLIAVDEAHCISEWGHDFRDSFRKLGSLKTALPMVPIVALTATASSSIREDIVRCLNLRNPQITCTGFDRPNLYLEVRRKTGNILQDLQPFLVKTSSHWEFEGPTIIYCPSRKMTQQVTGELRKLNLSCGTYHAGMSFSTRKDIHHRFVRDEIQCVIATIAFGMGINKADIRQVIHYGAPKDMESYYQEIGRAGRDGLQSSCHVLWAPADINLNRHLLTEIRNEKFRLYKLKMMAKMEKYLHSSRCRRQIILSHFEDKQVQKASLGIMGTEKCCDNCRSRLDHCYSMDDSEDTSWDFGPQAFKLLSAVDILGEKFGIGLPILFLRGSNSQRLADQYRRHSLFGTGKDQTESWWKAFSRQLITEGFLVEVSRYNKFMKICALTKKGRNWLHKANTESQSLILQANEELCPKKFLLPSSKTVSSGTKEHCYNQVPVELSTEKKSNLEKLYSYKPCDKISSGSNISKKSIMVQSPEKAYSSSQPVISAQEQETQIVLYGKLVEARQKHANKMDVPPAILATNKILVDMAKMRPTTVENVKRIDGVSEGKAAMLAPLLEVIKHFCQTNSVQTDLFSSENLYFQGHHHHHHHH
Assay type: biochemical
Procedure, shortened: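 Percent inhibition was normalised to DMSO (max) and 20 μM NSC-617145 (min) controls from ADP-Glo luminescence, and IC50 values came from a four-parameter fit. The reaction ran 60 min at 25 °C with 0.15 nM WRN, 5 μM ATP and 0.1 nM duplex DNA.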

IC50, 500 to 5000 nM:
CC(C)(O)c1cc(CN(C(=O)Cc2ncc(-c3ccc(F)c(F)c3)cn2)C2C=CS(=O)(=O)C2)ccn1 (stereo not shown) [I-116, 2-[5-(3,4-difluorophenyl)pyrimidin-2-yl]-N-(1,1-dioxo-2,3-dihydro-1lambda6-thiophen-3-yl)-N-{[2-(2-hydroxypropan-2-yl)pyridin-4-yl]methyl}acetamide]
COc1cc(CN(C(=O)Cc2ccc(C(C)(F)F)cc2)C2C=CS(=O)(=O)C2)ccn1 (stereo not shown) [I-117, 2-[4-(1,1-difluoroethyl)phenyl]-N-(1,1-dioxo-2,3-dihydro-1lambda6-thiophen-3-yl)-N-[(2-methoxypyridin-4-yl)methyl]acetamide]
COCc1cc(CN(C(=O)Cc2ccc(-n3cccc3C)cc2F)C2C=CS(=O)(=O)C2)ccn1 (stereo not shown) [I-118, N-(1,1-dioxo-2,3-dihydro-1lambda6-thiophen-3-yl)-2-[2-fluoro-4-(2-methyl-1H-pyrrol-1-yl)phenyl]-N-{[2-(methoxymethyl)pyridin-4-yl]methyl}acetamide]
COc1cc(CN(C(=O)Cc2ccc(-n3cccc3C)cc2)C2C=CS(=O)(=O)C2)ccn1 (stereo not shown) [I-119, N-(1,1-dioxo-2,3-dihydro-1lambda6-thiophen-3-yl)-N-[(2-methoxypyridin-4-yl)methyl]-2-[4-(2-methyl-1H-pyrrol-1-yl)phenyl]acetamide]
O=C(Cc1ccc(-c2cccc(F)c2)cc1F)N(Cc1ccncc1)C1C=CS(=O)(=O)C1 (stereo not shown) [I-120, 2-{3,3′-difluoro-[1,1′-biphenyl]-4-yl}-N-(1,1-dioxo-2,3-dihydro-1lambda6-thiophen-3-yl)-N-[(pyridin-4-yl)methyl]acetamide]
COc1cc(CN(C(=O)C2CNc3cc(-c4ccc(F)cc4)ccc32)C2C=CS(=O)(=O)C2)ccn1 (stereo not shown) [I-121, N-(1,1-dioxo-2,3-dihydro-1lambda6-thiophen-3-yl)-6-(4-fluorophenyl)-N-[(2-methoxypyridin-4-yl)methyl]-2,3-dihydro-1H-indole-3-carboxamide]
O=C(Cc1ccc(-n2cccc2)cc1F)N(Cc1ccc(Br)cc1)C1C=CS(=O)(=O)C1 (stereo not shown) [I-122, N-[(4-bromophenyl)methyl]-N-(1,1-dioxo-2,3-dihydro-1lambda6-thiophen-3-yl)-2-[2-fluoro-4-(1H-pyrrol-1-yl)phenyl]acetamide]
CC(C)c1ccc(CC(=O)N(Cc2ccnc(C(C)(C)O)c2)C2C=CS(=O)(=O)C2)cc1 (stereo not shown) [I-123, N-(1,1-dioxo-2,3-dihydro-1lambda6-thiophen-3-yl)-N-{[2-(2-hydroxypropan-2-yl)pyridin-4-yl]methyl}-2-[4-(propan-2-yl)phenyl]acetamide]
O=C(C1CNc2cc(-c3ccc(F)cc3)ccc21)N(Cc1ccncc1)C1C=CS(=O)(=O)C1 (stereo not shown) [I-124, N-(1,1-dioxo-2,3-dihydro-1lambda6-thiophen-3-yl)-6-(4-fluorophenyl)-N-[(pyridin-4-yl)methyl]-2,3-dihydro-1H-indole-3-carboxamide]
O=C(C(C(=O)N(Cc1ccncc1)C1C=CS(=O)(=O)C1)c1ccc(-c2ccc(F)cc2)cc1)N1CCCC1 (stereo not shown) [I-125, N-(1,1-dioxo-2,3-dihydro-1lambda6-thiophen-3-yl)-2-{4′-fluoro-[1,1′-biphenyl]-4-yl}-3-oxo-N-[(pyridin-4-yl)methyl]-3-(pyrrolidin-1-yl)propanamide]
COc1cc(CN(C(=O)C(C)c2ccc(S(F)(F)(F)(F)F)cc2)C2C=CS(=O)(=O)C2)ccn1 (stereo not shown) [I-126, N-(1,1-dioxo-2,3-dihydro-1lambda6-thiophen-3-yl)-N-[(2-methoxypyridin-4-yl)methyl]-2-[4-(pentafluoro-lambda6-sulfanyl)phenyl]propanamide]
CC(C)(O)c1cc(CN(C(=O)Cc2ccc(C(F)(F)F)cc2F)C2C=CS(=O)(=O)C2)ccn1 (stereo not shown) [I-128, N-(1,1-dioxo-2,3-dihydro-1lambda6-thiophen-3-yl)-2-[2-fluoro-4-(trifluoromethyl)phenyl]-N-{[2-(2-hydroxypropan-2-yl)pyridin-4-yl]methyl}acetamide]
COc1cc(CN(C(=O)Cc2ncc(-c3ccc(F)c(F)c3)cc2F)C2C=CS(=O)(=O)C2)ccn1 (stereo not shown) [I-129, 2-[5-(3,4-difluorophenyl)-3-fluoropyridin-2-yl]-N-(1,1-dioxo-2,3-dihydro-1lambda6-thiophen-3-yl)-N-[(2-methoxypyridin-4-yl)methyl]acetamide]
CC(C)(O)c1cc(CN(C(=O)C2Cc3cc(C(F)(F)F)ccc3O2)C2C=CS(=O)(=O)C2)ccn1 (stereo not shown) [I-131, N-(1,1-dioxo-2,3-dihydro-1lambda6-thiophen-3-yl)-N-{[2-(2-hydroxypropan-2-yl)pyridin-4-yl]methyl}-5-(trifluoromethyl)-2,3-dihydro-1-benzofuran-2-carboxamide]
COc1cc(CN(C(=O)C2Cc3cc(-n4cccc4C)ccc32)C2C=CS(=O)(=O)C2)ccn1 (stereo not shown) [I-132, N-(1,1-dioxo-2,3-dihydro-1lambda6-thiophen-3-yl)-N-[(2-methoxypyridin-4-yl)methyl]-3-(2-methyl-1H-pyrrol-1-yl)bicyclo[4.2.0]octa-1,3,5-triene-7-carboxamide]
COc1cc(CN(C(=O)Cn2cc(-c3ccccc3F)cn2)C2C=CS(=O)(=O)C2)ccn1 (stereo not shown) [I-134, N-(1,1-dioxo-2,3-dihydro-1lambda6-thiophen-3-yl)-2-[4-(2-fluorophenyl)-1H-pyrazol-1-yl]-N-[(2-methoxypyridin-4-yl)methyl]acetamide]
CC(C)(O)c1cc(CN(C(=O)Cc2ccc(C(F)(F)F)cc2)C2C=CS(=O)(=O)C2)ccn1 (stereo not shown) [I-135, N-(1,1-dioxo-2,3-dihydro-1lambda6-thiophen-3-yl)-N-{[2-(2-hydroxypropan-2-yl)pyridin-4-yl]methyl}-2-[4-(trifluoromethyl)phenyl]acetamide]
COc1cc(CN(C(=O)Cc2ccc(-c3ccc(F)cc3)cc2Cl)C2C=CS(=O)(=O)C2)ccn1 (stereo not shown) [I-136, 2-{3-chloro-4′-fluoro-[1,1′-biphenyl]-4-yl}-N-(1,1-dioxo-2,3-dihydro-1lambda6-thiophen-3-yl)-N-[(2-methoxypyridin-4-yl)methyl]acetamide]
COc1cc(CN(C(=O)C(C)n2cc(-c3ccc(F)cc3)cn2)[C@@H]2C=CS(=O)(=O)C2)ccn1 (stereo partly drawn) [I-137, N-[(3R)-1,1-dioxo-2,3-dihydro-1lambda6-thiophen-3-yl]-2-[4-(4-fluorophenyl)-1H-pyrazol-1-yl]-N-[(2-methoxypyridin-4-yl)methyl]propanamide]
Cc1cccn1-c1ccc(CC(=O)N(Cc2ccc(C(=O)O)cc2)C2C=CS(=O)(=O)C2)c(F)c1 (stereo not shown) [I-138, 4-{[N-(1,1-dioxo-2,3-dihydro-1lambda6-thiophen-3-yl)-2-[2-fluoro-4-(2-methyl-1H-pyrrol-1-yl)phenyl]acetamido]methyl}benzoic acid]
Cc1cccn1-c1ccc(CC(=O)N(Cc2ccnc(CC(C)(C)O)c2)C2C=CS(=O)(=O)C2)c(F)c1 (stereo not shown) [I-139, N-(1,1-dioxo-2,3-dihydro-1lambda6-thiophen-3-yl)-2-[2-fluoro-4-(2-methyl-1H-pyrrol-1-yl)phenyl]-N-{[2-(2-hydroxy-2-methylpropyl)pyridin-4-yl]methyl}acetamide]
O=C(C(C(=O)N(Cc1ccncc1)C1C=CS(=O)(=O)C1)c1ccc(-c2ccc(F)cc2)cc1)N1CCC1 (stereo not shown) [I-140, 3-(azetidin-1-yl)-N-(1,1-dioxo-2,3-dihydro-1lambda6-thiophen-3-yl)-2-{4′-fluoro-[1,1′-biphenyl]-4-yl}-3-oxo-N-[(pyridin-4-yl)methyl]propanamide]
CCOc1cc(CN(C(=O)Cc2ccc(-n3cccc3)cc2)C2C=CS(=O)(=O)C2)ccn1 (stereo not shown) [I-141, N-(1,1-dioxo-2,3-dihydro-1lambda6-thiophen-3-yl)-N-[(2-ethoxypyridin-4-yl)methyl]-2-[4-(1H-pyrrol-1-yl)phenyl]acetamide]
CNc1cc(CN(C(=O)Cc2ccc(-n3cccc3C)cc2F)C2C=CS(=O)(=O)C2)ccn1 (stereo not shown) [I-142, N-(1,1-dioxo-2,3-dihydro-1lambda6-thiophen-3-yl)-2-[2-fluoro-4-(2-methyl-1H-pyrrol-1-yl)phenyl]-N-{[2-(methylamino)pyridin-4-yl]methyl}acetamide]
O=C(Cc1ccc(-c2ccc(F)c(F)c2)cc1)N(Cc1ccncc1)C1C=CS(=O)(=O)C1 (stereo not shown) [I-143, 2-{3′,4′-difluoro-[1,1′-biphenyl]-4-yl}-N-(1,1-dioxo-2,3-dihydro-1lambda6-thiophen-3-yl)-N-[(pyridin-4-yl)methyl]acetamide]
COC(C(=O)N(Cc1ccncc1)C1C=CS(=O)(=O)C1)c1ccc(-c2ccc(F)cc2)cc1 (stereo not shown) [I-144, N-(1,1-dioxo-2,3-dihydro-1lambda6-thiophen-3-yl)-2-{4′-fluoro-[1,1′-biphenyl]-4-yl}-2-methoxy-N-[(pyridin-4-yl)methyl]acetamide]
O=C(Cc1ccc(-n2cccc2)cc1)N(Cc1nc(C(F)(F)F)cs1)C1C=CS(=O)(=O)C1 (stereo not shown) [I-145, N-(1,1-dioxo-2,3-dihydro-1lambda6-thiophen-3-yl)-2-[4-(1H-pyrrol-1-yl)phenyl]-N-{[4-(trifluoromethyl)-1,3-thiazol-2-yl]methyl}acetamide]
O=C(Cc1ccc(-n2cccc2)cc1)N(Cc1nc(-c2cccnc2)cs1)C1C=CS(=O)(=O)C1 (stereo not shown) [I-146, N-(1,1-dioxo-2,3-dihydro-1lambda6-thiophen-3-yl)-N-{[4-(pyridin-3-yl)-1,3-thiazol-2-yl]methyl}-2-[4-(1H-pyrrol-1-yl)phenyl]acetamide]
